Laboratory results: ChEMBL document CHEMBL2413077, “Anion inhibition studies of the α-carbonic anhydrase from the protozoan pathogen Trypanosoma cruzi, the causative agent of Chagas disease” (Bioorg Med Chem, 2013)

Target: Trypanosoma cruzi
Assay type: organism-based, CL Brener
Details: sf9

Row | SMILES | Ki [µM]
1 | [I-].[Na+] [SODIUM IODIDE] | 44
2 | O=[Te](=O)(O)O [SODIUM TELLURATE] | 710
3 | S [SODIUM HYDROSULFIDE] | 78
4 | NS(=O)(=O)O [SULFAMATE] | 10600
5 | OB(O)c1ccccc1 [PHENYLBORONIC ACID] | 860
6 | O=S(=O)([O-])[O-].[Na+].[Na+] [SODIUM SULFATE ANHYDROUS] | 6900
7 | O=BOB(O)OB(O)OB=O [SODIUM TETRABORATE] | 24300
8 | N#C[SeH] [SODIUM SELENOCYANATE] | 780
9 | [Cl-].[Na+] [SODIUM CHLORIDE] | 810
10 | NS(N)(=O)=O [SULFAMIDE] | 120
11 | O=[Se](=O)(O)O [SODIUM SELENATE] | 660
12 | O=NO [SODIUM NITRITE] | 700
13 | O=S(=O)(O)ONOS(=O)(=O)O [SODIUM IMINODISULFATE] | 7100
14 | O=S(=O)(O)OS(=O)(=O)O [SODIUM PYROSULFATE] | 760
15 | O=C([O-])[O-].[Na+].[Na+] [SODIUM CARBONATE] | 690
16 | O=S(=O)(O)OOS(=O)(=O)O [SODIUM PERSULFATE] | 840
17 | CCN(CC)C(=S)S [DITIOCARB SODIUM] | 5
18 | O=C([O-])O.[Na+] [SODIUM BICARBONATE] | 580
19 | [O-][Cl+3]([O-])([O-])O [SODIUM PERCHLORATE] | > 100000
20 | O=[As](O)(O)c1ccccc1 [PHENYLARSONIC ACID] | 620
21 | O=[N+]([O-])[O-].[Na+] [SODIUM NITRATE] | 770
22 | [Br-].[Na+] [SODIUM BROMIDE] | 730
23 | N#CO [SODIUM CYANATE] | 80
24 | O=S([O-])O.[Na+] [SODIUM BISULFITE] | 910
25 | F[B-](F)(F)F.[Na+] [SODIUM TETRAFLUOROBORATE] | > 100000
26 | [F-].[Na+] [SODIUM FLUORIDE] | 900
27 | [N-]=[N+]=[N-] [SODIUM AZIDE] | 1120
